Reference: ChEMBL document CHEMBL3865788, “Synthesis, characterization and interaction studies of 1,3,4-oxadiazole derivatives of fatty acid with human serum albumin (HSA): A combined multi-spectroscopic and molecular docking study” (Eur J Med Chem, 2016)

Assays:
Format in all cases: ADME
Conditions in all cases: isolated protein
Albumin [1] = target: T1, Albumin (Homo sapiens, UniProt P02768); assay: Binding affinity to human serum albumin assessed as absorbance at 280 nanometer at 50 and 100 uM by UV-vis spectroscopy
Albumin [2] = target: T1, Albumin; assay: Binding affinity to human serum albumin assessed as quenching constant in steady state at 298K and pH 7.4 by fluorescence spectroscopy
Albumin [3] = target: T1, Albumin; assay: Binding affinity to human serum albumin assessed as binding constant in steady state at 298K and pH 7.4 by fluorescence spectroscopy
Albumin [4] = target: T1, Albumin; assay: Binding affinity to human serum albumin assessed as Stern-Volmer quenching constant in steady state at 298K and pH 7.4 by fluorescence spectroscopy

T1 sequence (P02768 whole entry): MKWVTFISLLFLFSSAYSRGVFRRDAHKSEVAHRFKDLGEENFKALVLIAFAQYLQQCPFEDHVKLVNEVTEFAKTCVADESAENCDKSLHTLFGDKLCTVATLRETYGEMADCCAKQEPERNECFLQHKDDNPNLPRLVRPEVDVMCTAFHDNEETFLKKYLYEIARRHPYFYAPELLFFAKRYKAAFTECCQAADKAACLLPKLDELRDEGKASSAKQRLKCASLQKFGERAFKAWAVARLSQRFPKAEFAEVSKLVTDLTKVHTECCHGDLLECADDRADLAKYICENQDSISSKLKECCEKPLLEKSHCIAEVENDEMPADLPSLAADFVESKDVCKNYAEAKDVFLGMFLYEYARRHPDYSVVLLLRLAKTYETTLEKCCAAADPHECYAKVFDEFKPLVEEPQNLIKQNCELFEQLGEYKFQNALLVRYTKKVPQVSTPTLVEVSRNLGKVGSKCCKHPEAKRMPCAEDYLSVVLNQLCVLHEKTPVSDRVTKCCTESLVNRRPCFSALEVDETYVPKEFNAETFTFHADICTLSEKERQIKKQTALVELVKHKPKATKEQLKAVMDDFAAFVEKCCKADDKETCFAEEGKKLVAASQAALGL

- Activity (Albumin [1]): < 0.03
- Kq (Albumin [2]): 6.4 ×10¹¹ /M/s
- Kb (Albumin [3]): 2.95 ×10³ /M
- KSV (Albumin [4]): 3.6 ×10³ /M
Compound: CCCCCCCC/C=C\CCCCCCCc1nnc(C)o1
